# According to US20080312435A1, “Imine Compound” (TAISHO PHARMACEUTICAL CO., LTD., priority 2004, published 2008):
# Tests used:
# [1] = biological target: T1, human CB2 receptor (Homo sapiens, UniProt P34972); test: Human CB2 receptor binding inhibition test ([3H]CP-55,940, CHO membrane fractions); conditions: [3H]CP-55,940, membrane fractions of CHO cells stably expressing human CB2 receptor, 25° C., 2 hours; read-out: CB2 IC50 (Inhibition of binding to human CB2 receptor)
# T1 construct: expressed in transfected cells
# Method in brief: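 Membranes from CHO-DHFR(−) cells stably expressing human CB2 used for [3H]CP-55,940 binding; filter-bound radioactivity counted by scintillation after washes with 0.1% BSA buffer. Nonspecific binding defined with 2.0 μM CP-55,940; IC50 for inhibition of specific binding.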
# [2] = biological target: T2, human CB1 receptor (Homo sapiens, UniProt P21554); test: Human CB1 receptor binding inhibition test; conditions: CHO-DHFR(−) cells stably expressing human CB1 receptor, same manner as Experimental Example 1
# T2 construct: expressed in transfected cells
# Description: Human CB1 Receptor Binding Inhibition Test
# The CHO-DHFR(−) cells capable of stably expressing a CB1 receptor were prepared in the same manner as in Experimental Example 1. The binding test to the human CB1 receptor was performed to obtain 50% inhibitory concentration (IC50 value) of a test compound.
# T1 sequence (P34972 whole entry): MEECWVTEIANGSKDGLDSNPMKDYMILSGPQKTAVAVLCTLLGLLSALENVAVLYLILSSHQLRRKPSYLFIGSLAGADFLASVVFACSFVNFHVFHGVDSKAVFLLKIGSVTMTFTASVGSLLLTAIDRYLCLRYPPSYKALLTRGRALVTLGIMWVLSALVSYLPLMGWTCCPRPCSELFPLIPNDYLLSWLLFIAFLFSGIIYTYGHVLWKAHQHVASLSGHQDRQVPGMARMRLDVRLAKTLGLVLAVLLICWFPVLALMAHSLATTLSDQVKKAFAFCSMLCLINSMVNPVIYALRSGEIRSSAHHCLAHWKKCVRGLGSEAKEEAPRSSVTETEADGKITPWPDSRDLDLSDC
# T2 sequence (P21554 whole entry): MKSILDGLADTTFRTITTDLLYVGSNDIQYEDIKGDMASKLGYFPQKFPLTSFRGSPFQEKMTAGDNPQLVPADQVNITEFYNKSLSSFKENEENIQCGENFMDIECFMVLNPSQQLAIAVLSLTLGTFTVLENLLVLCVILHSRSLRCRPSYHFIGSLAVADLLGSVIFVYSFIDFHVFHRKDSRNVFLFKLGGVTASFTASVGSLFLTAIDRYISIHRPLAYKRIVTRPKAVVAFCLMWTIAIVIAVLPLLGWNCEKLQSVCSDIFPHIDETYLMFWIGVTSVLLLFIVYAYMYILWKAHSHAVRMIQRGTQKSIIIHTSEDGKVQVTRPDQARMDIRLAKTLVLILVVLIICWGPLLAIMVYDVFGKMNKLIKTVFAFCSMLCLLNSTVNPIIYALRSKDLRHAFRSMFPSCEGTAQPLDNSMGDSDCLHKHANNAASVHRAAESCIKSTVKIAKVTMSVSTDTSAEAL
structure (smiles),measurement,setting,value
CC(C)(C)c1c/c(=N\C(=O)c2cccc(C(F)(F)F)c2F)n(CC2CC2)s1 [compound 56],melting point,,85 to 87 °C
same,IC50,[1],0.0008 µM
same,IC50,[2],0.294 µM
COCCn1c(C)c(C)s/c1=N\C(=O)c1cccc(C(F)(F)F)c1F [compound 104],melting point,,182 to 183 °C
same,IC50,[1],0.0017 µM
same,IC50,[2],0.327 µM
CCOCCn1c(C)c(C)s/c1=N\C(=O)c1cccc(C(F)(F)F)c1F [compound 107],melting point,,147 to 148 °C
same,IC50,[1],0.0005 µM
same,IC50,[2],0.018 µM
CCOCCn1c(C)c(C(C)C)s/c1=N\C(=O)c1cccc(C(F)(F)F)c1F [compound 115],melting point,,96 to 97 °C
same,IC50,[1],0.0005 µM
same,IC50,[2],0.025 µM
Cc1ccccc1C(=O)/N=c1\sc(C(C)(C)C)c(C)n1CC1CC1 [compound 180],IC50,[1],0.001 µM
same,IC50,[2],0.395 µM
CCc1ccccc1C(=O)/N=c1\sc(C(C)(C)C)c(C)n1CC1CC1 [compound 181],melting point,,120 to 122 °C
same,IC50,[1],0.0008 µM
same,IC50,[2],0.115 µM
Cc1c(C(C)(C)C)s/c(=N\C(=O)c2ccccc2C(C)C)n1CC1CC1 [compound 182],melting point,,168 to 169 °C
same,IC50,[1],0.0003 µM
same,IC50,[2],0.022 µM
Cc1c(C(C)(C)C)s/c(=N\C(=O)c2ccccc2C(F)(F)F)n1CC1CC1 [compound 183],melting point,,90 to 91 °C
same,IC50,[1],0.0005 µM
same,IC50,[2],0.138 µM
Cc1c(C(C)(C)C)s/c(=N\C(=O)c2ccccc2Cl)n1CC1CC1 [compound 186],IC50,[1],0.0017 µM
same,IC50,[2],0.271 µM
Cc1c(C(C)(C)C)s/c(=N\C(=O)c2ccccc2Br)n1CC1CC1 [compound 189],IC50,[1],0.0015 µM
same,IC50,[2],0.212 µM
Cc1c(C(C)(C)C)s/c(=N\C(=O)c2ccccc2I)n1CC1CC1 [compound 191],IC50,[1],0.0007 µM
same,IC50,[2],0.193 µM
Cc1c(C(C)(C)C)s/c(=N\C(=O)c2ccccc2N2CCOCC2)n1CC1CC1 [compound 206],IC50,[1],0.0057 µM
same,IC50,[2],0.46 µM
Cc1cccc(C(=O)/N=c2\sc(C(C)(C)C)c(C)n2CC2CC2)c1C [compound 215],melting point,,97 to 98 °C
same,IC50,[1],0.0011 µM
same,IC50,[2],0.061 µM
Cc1c(C(C)(C)C)s/c(=N\C(=O)c2c(F)cccc2F)n1CC1CC1 [compound 223],melting point,,123 to 124 °C
same,IC50,[1],0.002 µM
same,IC50,[2],0.168 µM
Cc1c(C(C)(C)C)s/c(=N\C(=O)c2cc(F)ccc2Br)n1CC1CC1 [compound 228],melting point,,92 to 94 °C
same,IC50,[1],0.0005 µM
same,IC50,[2],0.228 µM
Cc1c(C(C)(C)C)s/c(=N\C(=O)c2ccc(F)cc2Br)n1CC1CC1 [compound 229],melting point,,126 to 128 °C
same,IC50,[1],0.001 µM
same,IC50,[2],0.263 µM
Cc1c(C(C)(C)C)s/c(=N\C(=O)c2cc(Cl)ccc2Cl)n1CC1CC1 [compound 232],melting point,,129 to 131 °C
same,IC50,[1],0.0005 µM
same,IC50,[2],0.211 µM
COc1cccc(C(=O)/N=c2\sc(C(C)(C)C)c(C)n2CC2CC2)c1OC [compound 235],melting point,,93 to 94 °C
same,IC50,[1],0.0034 µM
same,IC50,[2],0.315 µM
COc1ccc(C(=O)/N=c2\sc(C(C)(C)C)c(C)n2CC2CC2)c(OC)c1 [compound 236],IC50,[1],0.002 µM
same,IC50,[2],0.215 µM
CCOc1ccc(C(=O)/N=c2\sc(C(C)(C)C)c(C)n2CC2CC2)c(OCC)c1 [compound 237],melting point,,116 to 118 °C
same,IC50,[1],0.0131 µM
same,IC50,[2],0.2 µM
Cc1c(F)cccc1C(=O)/N=c1\sc(C(C)(C)C)c(C)n1CC1CC1 [compound 240],melting point,,94 to 96 °C
same,IC50,[1],0.0034 µM
same,IC50,[2],0.168 µM
Cc1c(Cl)cccc1C(=O)/N=c1\sc(C(C)(C)C)c(C)n1CC1CC1 [compound 243],melting point,,88 to 90 °C
same,IC50,[1],0.0004 µM
same,IC50,[2],0.073 µM
Cc1c(Br)cccc1C(=O)/N=c1\sc(C(C)(C)C)c(C)n1CC1CC1 [compound 245],melting point,,89 to 90 °C
same,IC50,[1],0.0008 µM
same,IC50,[2],0.032 µM
Cc1ccc(C(=O)/N=c2\sc(C(C)(C)C)c(C)n2CC2CC2)c(Br)c1 [compound 246],melting point,,82 to 84 °C
same,IC50,[1],0.0008 µM
same,IC50,[2],0.319 µM
Cc1c(C(C)(C)C)s/c(=N\C(=O)c2c(F)cccc2C(F)(F)F)n1CC1CC1 [compound 256],melting point,,128 to 130 °C
same,IC50,[1],0.0011 µM
same,IC50,[2],0.102 µM
Cc1c(C(C)(C)C)s/c(=N\C(=O)c2cccc(C(F)(F)F)c2Cl)n1CC1CC1 [compound 258],melting point,,93 to 94 °C
same,IC50,[1],0.0006 µM
same,IC50,[2],0.019 µM
COc1ccc(C(=O)/N=c2\sc(C(C)(C)C)c(C)n2CC2CC2)c(C)c1 [compound 261],melting point,,95 to 96 °C
same,IC50,[1],0.001 µM
same,IC50,[2],0.375 µM
